Read-outs that look alike come from different tables or passages of the source.
How the values were obtained:
[1] = test system: human breast cancer cell line JIMT-1; experiment: Antitumor test (2), subcutaneous xenograft; format: in vivo, mouse; details: single administration
Protocol: Mouse: Five- to six-week-old female BALB/c nude mice (Charles River Laboratories Japan, Inc.) were subjected to experiment. Assay and calculation formula: In all of the studies, the major axis and minor axis of a tumor were measured twice a week by using an electronic digital caliper ([…] Corp.), and the tumor volume (mm^3) was calculated. The calculation formula is as shown below. [formula] Each of the anti-CLDN6 antibody-drug conjugate ADC1, the anti-HER2 antibody-drug conjugate ADC2, and the anti-TROP2 antibody-drug conjugate ADC3 was diluted with ABS buffer (10 mM acetate buffer (pH 5.5), 5% sorbitol), and a liquid volume of 10 mL/kg was intravenously administered into the tail vein. […] LLC)/Dulbecco's Phosphate-Buffered Saline, and then a liquid volume of 10 mL/kg was intraperitoneally administered. […] LLC)/Dulbecco's Phosphate-Buffered Saline, and then a liquid volume of 10 mL/kg was orally administered. Niraparib was dissolved in DMSO, diluted with 0.5% methylcellulose, and then a liquid volume of 10 mL/kg was orally administered. The described method is common to Examples 34 to 37. […]

[2] = test system: human pharyngeal cancer cell line FaDu; experiment: Cell growth inhibition test (2); format: cell-based; details: 144 h
Protocol: The human pharyngeal cancer cell line FaDu obtained from ATCC (American Type Culture Collection) was used for evaluation. Cells were prepared with MEM containing 10% fetal bovine serum (GE Healthcare), MEM Non-Essential Amino Acids Solution (Thermo Fisher Scientific), and Sodium Pyruvate (Thermo Fisher Scientific) (Thermo Fisher Scientific; hereinafter, referred to as EMEM medium) to reach 6.25×10^3 cells/mL, and 80 μL portions of them were added into a 96-well cell culture microplate. After addition of the cells, the cells were cultured at 37° C. and 5% CO2 overnight.
On the next day, 10 μL portions of pyrrolobenzodiazepine derivative A, B, or C diluted with EMEM medium to 100 pM, 50 pM, 25 pM, 12.5 pM, 6.25 pM, 3.13 pM, 1.56 pM, or 0.78 pM were added to the microplate. To each well without any pyrrolobenzodiazepine derivative, 10 μL of EMEM medium was added. Further, 10 μL portions of olaparib prepared with EMEM medium to reach 1 μM were added to the microplate. To each well without olaparib, 10 μL of EMEM medium was added. Thereafter, the microplate was cultured at 37° C. and 5% CO2 for 6 days. After culturing, the microplate was taken out of the incubator, and left to stand at room temperature for 30 minutes. CellTiter-Glo Luminescent Cell Viability Assay (Promega Corporation) in an amount equivalent to that of the culture solution was added, and stirred using a plate mixer. The microplate was left to stand at room temperature for 10 minutes, and thereafter the amount of emission was measured by using a plate reader (PerkinElmer).
Cell survival rates in wells with derivative A, B, or […] were calculated by using the following formula.
[formula] • a: Mean value of amounts of emission from wells with derivative A, B, or C • b: Mean value of amounts of emission from wells with medium • IC50 values were calculated by using the following formula.
(§1) [formula] • a: Concentration of derivative A, B, or C, a • b: Concentration of derivative A, B, or C, b • c: Cell survival rate when derivative A, B, or C of concentration a was added • d: Cell survival rate when derivative A, B, or C of concentration b was added • a and b satisfy a>b at points sandwiching a cell survival rate of 50%.
Cell survival rates in wells with derivative A, B, or C added together with 1 μM olaparib were calculated by using the following formula.
[formula] • a: Mean value of amounts of emission from wells with derivative A, B, or C added together with 1 μM olaparib • b: Mean value of amounts of emission from wells with 1 μM olaparib • IC50 values were calculated by using the following formula.
as §1, with “and 1 μM olaparib were” for “was”

With `Cn1ncnc1[C@H]1c2n[nH]c(=O)c3cc(F)cc(c23)N[C@@H]1c1ccc(F)cc1` [talazoparib] the tumor growth-suppressing effect ([1]; talazoparib 0.8 mg/kg oral for 5 days from Day 0, JIMT-1) was “No tumor growth-suppressing effect”.
For `O=C(c1cc(Cc2n[nH]c(=O)c3ccccc23)ccc1F)N1CCN(C(=O)C2CC2)CC1` [olaparib, reference compound], the inhibition at 1 µM ([2]; 1 μM olaparib alone, 6 days) was under 10% and the tumor growth-suppressing effect ([1]; olaparib 50 mg/kg i.p. for 5 days from Day 0, JIMT-1) was “No tumor growth-suppressing effect”.
In the case of `COc1ccc(C2=CN3C(=O)c4cc(OC)c(OCCCCCOc5cc6c(cc5OC)C(=O)N5CC7(CC7)C[C@H]5C=N6)cc4NC[C@@H]3C2)cc1` [derivative A, (11a′S)-7′-Methoxy-8′-[(5-{[(11aS)-7-methoxy-2-(4-methoxyphenyl)-5-oxo-5,10,11,11a-tetrahydro-1H-pyrrolo[2,1-c][1,4]benzodiazepin-8-yl]oxy}pentyl)oxy]-1′,11a′-dihydro-5′H-spiro[cyclopropane-1,2′-pyrrolo[2,1-c][1,4]benzodiazepine]-5′-one], the IC50 ([2]; read-out: IC50, growth-suppressing effect, added singly, FaDu, 6 days (test 2)) is reported as 8.6 pM and the IC50 ([2]; read-out: IC50, growth-suppressing effect, added together with 1 μM olaparib, FaDu, 6 days) is reported as 4.4 pM.
